Results as given in patent US20220089575A1, “FARNESOID X RECEPTOR AGONISTS AND USES THEREOF” (Metacrine, Inc., priority 2017, published 2022).

molecular target: T1, hFXR (Homo sapiens, UniProt Q96RI1); assay: In Vitro FXR Assay (TK): TK-ECRE-luc reporter in transfected CV-1 cells; format: cell-based; settings: 18 hrs, luminescence, maximum efficacy of <25% of the Fexarmine control classified as '+'
T1 construct: expressed in transfected cells; host or cells: CV-1 cells
T1 sequence (Q96RI1 1-486): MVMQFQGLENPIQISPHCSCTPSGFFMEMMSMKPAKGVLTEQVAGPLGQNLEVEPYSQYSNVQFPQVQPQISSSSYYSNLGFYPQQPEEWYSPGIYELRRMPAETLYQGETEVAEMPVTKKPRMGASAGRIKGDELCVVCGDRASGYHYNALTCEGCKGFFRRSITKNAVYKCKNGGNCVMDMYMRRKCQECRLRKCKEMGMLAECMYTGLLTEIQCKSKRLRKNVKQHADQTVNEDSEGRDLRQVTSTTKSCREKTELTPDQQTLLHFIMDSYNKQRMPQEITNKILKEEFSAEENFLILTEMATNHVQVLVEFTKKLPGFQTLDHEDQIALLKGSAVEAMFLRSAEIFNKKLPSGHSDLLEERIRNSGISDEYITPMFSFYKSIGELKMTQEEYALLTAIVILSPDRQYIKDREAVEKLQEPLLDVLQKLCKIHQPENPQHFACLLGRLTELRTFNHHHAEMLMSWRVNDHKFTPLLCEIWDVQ
T1 sequence (P19793 1-462 partner): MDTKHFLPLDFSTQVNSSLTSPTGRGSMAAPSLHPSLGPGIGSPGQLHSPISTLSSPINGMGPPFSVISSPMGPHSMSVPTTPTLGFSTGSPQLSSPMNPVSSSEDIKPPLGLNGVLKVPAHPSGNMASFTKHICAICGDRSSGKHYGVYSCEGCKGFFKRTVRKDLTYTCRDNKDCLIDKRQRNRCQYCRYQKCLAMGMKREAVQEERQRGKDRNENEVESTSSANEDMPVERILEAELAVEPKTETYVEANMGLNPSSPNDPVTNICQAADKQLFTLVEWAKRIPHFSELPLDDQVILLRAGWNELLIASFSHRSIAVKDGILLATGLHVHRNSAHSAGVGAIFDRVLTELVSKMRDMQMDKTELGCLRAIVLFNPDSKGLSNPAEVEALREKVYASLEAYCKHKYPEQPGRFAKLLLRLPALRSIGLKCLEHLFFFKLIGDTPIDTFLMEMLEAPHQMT
Method in brief: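 Transiently transfected monkey CV-1 cells (hFXR, hRXR, TK-ECRE-luciferase, YFP control plasmid), held in stripped-serum DMEM, received compound dilutions from DMSO for 18 h at 37 °C. Activity was taken from luminescence of the cell lysates.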

Compound	EC50 [nM]
COc1ccc([C@H]2CC[C@H](CN(c3cccc(-c4cnn(C(C)C)c4)c3)C(=O)[C@H]3CC[C@H](OC(=O)N4CCN(C)CC4)CC3)CC2)nc1C [Compound 6.44, trans-4-((3-(1-Isopropyl-1H-pyrazol-4-yl)phenyl)((trans-4-(5-methoxy-6-methylpyridin-2-yl)cyclohexyl)methyl)carbamoyl)cyclohexyl 4-methylpiperazine-1-carboxylate]	≤ 250
COc1ccc(C23CCC(CN(c4cccc(-c5coc(C6CC6)n5)c4)C(=O)[C@H]4CC[C@H](OC(=O)NCCO)CC4)(CC2)CC3)cc1C [Compound 6.45, 4-((3-(2-Cyclopropyloxazol-4-yl)phenyl) ((4-(4-methoxy-3-methylphenyl)bicyclo [2.2.2]octan-1-yl)methyl)carbamoyl) cyclohexyl trans-(2-hydroxyethyl) carbamate]	≤ 250
COc1ccc([C@H]2CC[C@H](CN(c3cccc(-c4coc(C5CC5)n4)c3)C(=O)[C@H]3CC[C@H](OC(=O)NCCO)CC3)CC2)cc1C [Compound 6.46, trans-4-((3-(2-Cyclopropyloxazol-4-yl)phenyl)((trans-4-(4-methoxy-3-methylphenyl)cyclohexyl)methyl)carbamoyl)cyclohexyl (2-hydroxyethyl) carbamate]	≤ 250
COc1ccc([C@H]2CC[C@H](CN(c3cccc(-c4coc(C(C)C)n4)c3)C(=O)[C@H]3CC[C@H](OC(=O)NCCO)CC3)CC2)cc1C [Compound 6.47, trans-4-((3-(2-Isopropyloxazol-4-yl)phenyl)((trans-4-(4-methoxy-3-methylphenyl)cyclohexyl)methyl)carbamoyl)cyclohexyl (2-hydroxyethyl) carbamate]	≤ 250
COc1ccc([C@H]2CC[C@H](CN(c3cccc(-c4coc(C(C)C)n4)c3)C(=O)[C@H]3CC[C@H](OC(=O)NCCCO)CC3)CC2)nc1C [Compound 6.49, trans-4-((3-(2-Isopropyloxazol-4-yl)phenyl)((trans-4-(5-methoxy-6-methylpyridin-2-yl)cyclohexyl)methyl)carbamoyl)cyclohexyl (3-hydroxypropyl)carbamate]	≤ 250
COc1ccc([C@H]2CC[C@H](CN(c3cccc(-c4coc(C5CC5)n4)c3)C(=O)[C@H]3CC[C@H](OC(=O)NCCO)CC3)CC2)nc1C [Compound 6.50, trans-4-((3-(2-Cyclopropyloxazol-4-yl)phenyl)((trans-4-(5-methoxy-6-methylpyridin-2-yl)cyclohexyl)methyl)carbamoyl)cyclohexyl (2-hydroxyethyl)carbamate]	≤ 250

Further lines, results first:

EC50 [nM]	Compound
≤ 250	COc1ccc([C@H]2CC[C@H](CN(c3cccc(-c4coc(C(C)C)n4)c3)C(=O)[C@H]3CC[C@H](OC(=O)NCCO)CC3)CC2)nc1C [Compound 6.48, trans-4-((3-(2-Isopropyloxazol-4-yl)phenyl)((trans-4-(5-methoxy-6-methylpyridin-2-yl)cyclohexyl)methyl)carbamoyl)cyclohexyl (2-hydroxyethyl)carbamate]
≤ 250	COc1ccc([C@H]2CC[C@H](CN(c3cccc(-c4coc(C5CC5)n4)c3)C(=O)[C@H]3CC[C@H](OC(=O)NCCCO)CC3)CC2)nc1C [Compound 6.51, trans-4-((3-(2-Cyclopropyloxazol-4-yl)phenyl)((trans-4-(5-methoxy-6-methylpyridin-2-yl)cyclohexyl)methyl)carbamoyl)cyclohexyl (3-hydroxypropyl)carbamate]
≤ 250	COc1ccc([C@H]2CC[C@H](CN(c3cc(-c4coc(C5CC5)n4)ccn3)C(=O)[C@H]3CC[C@H](OC(=O)NCCO)CC3)CC2)cc1C [Compound 6.52, trans-4-((4-(2-Cyclopropyloxazol-4-yl)pyridine-2-yl)((trans-4-(4-methoxy-3-methylphenyl)cyclohexyl)methyl)carbamoyl)cyclohexyl (2-hydroxyethyl) carbamate]
